Data reported in ChEMBL document CHEMBL1649321, “Plasmid-mediated resistance to cephalosporins in Salmonella enterica serovar Typhi” (2010).
In brackets after ≈: the same amount, converted by molar mass.

Experiments:
Salmonella typhi [1] = experiment: Antimicrobial activity against Salmonella enterica serovar Typhi isolate 080049Ty by broth microdilution method in presence of beta-lactamase inhibitor clavulanic acid; format: functional, Salmonella enterica subsp. enterica serovar Typhi
Salmonella typhi [2] = experiment: Antimicrobial activity against Salmonella enterica serovar Typhi isolate 080048Ty transconjugant harboring bla CTX-M-15 gene by broth microdilution method in presence of beta-lactamase inhibitor clavulanic acid; format: functional, Salmonella enterica subsp. enterica serovar Typhi
Escherichia coli [3] = experiment: Antimicrobial activity against Escherichia coli W3110 transformant harboring bla CTX-M-15 gene by broth microdilution method in presence of beta-lactamase inhibitor clavulanic acid; format: functional
Escherichia coli [4] = experiment: Antimicrobial activity against Escherichia coli W3110 transformant harboring bla CTX-M-15 gene by broth microdilution method; format: functional
Salmonella typhi [5] = experiment: Antimicrobial activity against Salmonella enterica serovar Typhi isolate 080048Ty transconjugant harboring bla CTX-M-15 gene by broth microdilution method; format: functional, Salmonella enterica subsp. enterica serovar Typhi
Salmonella typhi [6] = experiment: Antimicrobial activity against Salmonella enterica serovar Typhi isolate 080048Ty by broth microdilution method; format: functional, Salmonella enterica subsp. enterica serovar Typhi
Salmonella typhi [7] = experiment: Antimicrobial activity against Salmonella enterica serovar Typhi isolate 080048Ty by broth microdilution method in presence of beta-lactamase inhibitor clavulanic acid; format: functional, Salmonella enterica subsp. enterica serovar Typhi
Salmonella typhi [8] = experiment: Antimicrobial activity against Salmonella enterica serovar Typhi isolate 080049Ty by broth microdilution method; format: functional, Salmonella enterica subsp. enterica serovar Typhi

Structure (SMILES) | MIC (Salmonella typhi [1]) | MIC (Salmonella typhi [2]) | MIC (Escherichia coli [3]) | MIC (Escherichia coli [4]) | MIC (Salmonella typhi [5]) | MIC (Salmonella typhi [6]) | MIC (Salmonella typhi [7]) | MIC (Salmonella typhi [8])
CC(C)(O/N=C(\C(=O)N[C@@H]1C(=O)N2C(C(=O)[O-])=C(C[n+]3ccccc3)CS[C@H]12)c1csc(N)n1)C(=O)O [CEFTAZIDIME] | 0.25 mg/L | 0.25 mg/L | 0.25 mg/L | 64 mg/L (≈ 117 µM) | 64 mg/L (≈ 117 µM) | 1 mg/L (≈ 1.83 µM) | 0.25 mg/L | 64 mg/L (≈ 117 µM)
CO/N=C(\C(=O)N[C@@H]1C(=O)N2C(C(=O)O)=C(CSc3nc(=O)c(O)nn3C)CS[C@H]12)c1csc(N)n1 [CEFTRIAXONE] | – | – | – | > 128 mg/L | > 128 mg/L | 0.125 mg/L (≈ 0.225 µM) | – | > 128 mg/L
CC1(C)S[C@@H]2[C@H](NC(=O)[C@H](N)c3ccccc3)C(=O)N2[C@H]1C(=O)O [AMPICILLIN] | – | – | – | > 64 mg/L | > 64 mg/L | < 2 mg/L | – | > 64 mg/L
CO/N=C(\C(=O)N[C@@H]1C(=O)N2C(C(=O)O)=C(COC(C)=O)CS[C@H]12)c1csc(N)n1 [CEFOTAXIME] | < 0.125 mg/L | < 0.125 mg/L | < 0.125 mg/L | > 128 mg/L | > 128 mg/L | 0.125 mg/L (≈ 0.274 µM) | < 0.125 mg/L | > 128 mg/L
CCn1cc(C(=O)O)c(=O)c2ccc(C)nc21 [NALIDIXIC ACID] | – | – | – | 32 mg/L (≈ 138 µM) | > 64 mg/L | > 64 mg/L | – | > 64 mg/L
